The target of the first test is METTL3/METTL14 (Homo sapiens). Nature of the test: Inhibition of full-length His-tagged METTL3/full length FLAG-tagged METTL14 (unknown origin) expressed in baculovirus expression system using synthetic RNA 5'P-uacacucgaucuggacuaaagcugcuc-3' and SAM as substrate preincubated for 10 mins followed by substrate addition and measured after 60 mins by RF/MS analysis.
As usually defined, the IC50 is the concentration that gives 50% inhibition. For the compound `O=C(NCc1cn2cc(CNCC34CC(F)(C3)C4)ccc2n1)c1cc(=O)n2ccccc2n1`, the midpoint of inhibition, the IC50, lay at 6.1 nM.

As for `COc1cc(-c2cn(Cc3cn4cc(CNCC56CC(F)(C5)C6)ccc4n3)nn2)c2cncn2c1` [({3-fluorobicyclo[1.1.1]pentan-1-yl}methyl)({2-[(4-{6-methoxyimidazo[1,5-a]pyridin-8-yl}-1H-1,2,3-triazol-1-yl)methyl]imidazo [1,2-a]pyridin-6-yl}methyl)amine], 6.1 nM corresponded to half-maximal inhibition (IC50).

As for `COc1cc(-c2cn(Cc3cn4cc(CNCC56CC(C5)C6)ccc4n3)nn2)c2cncn2c1` [({bicyclo[1.1.1]pentan-1-yl}methyl)({2-[(4-{6-methoxyimidazo[1,5-a]pyridin-8-yl}-1H-1,2,3-triazol-1-yl)methyl]imidazo [1,2-a]pyridin-6-yl}methyl)amine], the IC50 was determined as 6.1 nM.

For the compound `COc1cc(-c2cn(Cc3cn4cc(CNCC5CCC5)ccc4n3)nn2)c2cncn2c1` [US20230391770, Example 22], the IC50 was determined as 6.1 nM.

For another test, the target named is N6-adenosine-methyltransferase catalytic/non-catalytic subunit (Homo sapiens, UniProt Q9HCE5+Q86U44). Nature of the test: Inhibition of full-length His-tagged METTL3/full length FLAG-tagged METTL14 (unknown origin) expressed in baculovirus expression system using synthetic RNA 5'P-uacacucgaucuggacuaaagcugcuc-3' and SAM as substrate preincubated for 10 mins followed by substrate addition and measured after 60 mins by RF/MS analysis.
Sequence of N6-adenosine-methyltransferase catalytic/non-catalytic subunit (Q9HCE5 whole entry): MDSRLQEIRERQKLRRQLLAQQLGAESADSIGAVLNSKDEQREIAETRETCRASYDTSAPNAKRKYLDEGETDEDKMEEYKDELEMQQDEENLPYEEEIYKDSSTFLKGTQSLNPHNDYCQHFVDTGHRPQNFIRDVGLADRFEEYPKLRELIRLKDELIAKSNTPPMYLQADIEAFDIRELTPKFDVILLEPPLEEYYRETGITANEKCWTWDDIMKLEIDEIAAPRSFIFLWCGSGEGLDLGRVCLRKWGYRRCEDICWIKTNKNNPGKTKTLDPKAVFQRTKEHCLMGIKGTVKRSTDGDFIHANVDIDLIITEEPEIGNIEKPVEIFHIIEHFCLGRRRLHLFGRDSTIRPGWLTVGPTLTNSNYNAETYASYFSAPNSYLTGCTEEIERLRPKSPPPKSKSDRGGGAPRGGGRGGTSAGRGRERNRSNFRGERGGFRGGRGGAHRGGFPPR
Sequence of N6-adenosine-methyltransferase catalytic/non-catalytic subunit (Q86U44 whole entry): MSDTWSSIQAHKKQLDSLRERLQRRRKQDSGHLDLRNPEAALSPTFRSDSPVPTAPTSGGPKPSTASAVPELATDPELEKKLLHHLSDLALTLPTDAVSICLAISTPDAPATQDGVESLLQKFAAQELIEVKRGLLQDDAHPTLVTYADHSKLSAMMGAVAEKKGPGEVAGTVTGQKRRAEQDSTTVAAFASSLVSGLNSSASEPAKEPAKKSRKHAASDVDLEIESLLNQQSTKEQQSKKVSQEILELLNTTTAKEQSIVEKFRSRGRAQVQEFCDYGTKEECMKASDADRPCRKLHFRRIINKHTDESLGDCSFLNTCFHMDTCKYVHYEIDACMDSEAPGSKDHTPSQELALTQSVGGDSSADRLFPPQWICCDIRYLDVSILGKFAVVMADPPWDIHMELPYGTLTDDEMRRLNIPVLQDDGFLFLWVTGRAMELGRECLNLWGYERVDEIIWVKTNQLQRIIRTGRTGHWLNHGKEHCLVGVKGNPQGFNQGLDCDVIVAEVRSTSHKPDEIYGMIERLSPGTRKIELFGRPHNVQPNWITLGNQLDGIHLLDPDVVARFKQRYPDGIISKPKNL
Turning to `CC1(C)CCN(Cc2ccc3nc(Cn4cc(-c5cc(Br)cc6[nH]ncc56)nn4)cn3c2)CC1`, the IC50 is 7.9 nM.

In turn, `COc1cc(-c2cn(Cc3cn4cc(CNCC5(OC)CCC5)ccc4n3)nn2)c2cn[nH]c2c1` showed an IC50 of 6.1 nM. The IC50 values of the last two compounds are within 1.5-fold of each other.

Turning to `COc1ccc2[nH]ncc2c1-c1cn(Cc2cn3cc(CNCC4CCC4)ccc3n2)nn1`, the IC50 stood at 6.1 nM.

In turn, `Nc1ncnc2c1c(Br)cn2[C@@H]1C[C@H](c2ccc3cc(CN4CCC5(CCC5)C4)[nH]c3c2)[C@@H](O)[C@H]1O` [(1R,2S,3R,5R)-3-{4-amino-5-bromo-7H-pyrrolo[2,3-d]pyrimidin-7-yl}-5-[2-({6-azaspiro[3.4]octan-] showed an IC50 of 6.1 nM.

On to `Nc1ncnc2c1c(Cl)cn2[C@@H]1C[C@H](c2ccc3cc(CNCC45CC(F)(C4)C5)[nH]c3c2)[C@@H](O)[C@H]1O` [(1R,2S,3R,5R)-3-{4-amino-5-chloro-7H-pyrrolo[2,3-d]pyrimidin-7-yl}-5-(2-{[({3-fluorobicyclo[1.1.1]pentan-1-], for which the IC50 stood at 6.1 nM. This lies in the single-digit nanomolar range.

In turn, `Nc1ncnc2c1ccn2[C@@H]1C[C@H](c2ccc3cc(CN4CCC5(CCC5)C4)[nH]c3c2)[C@@H](O)[C@H]1O` [(1R,2S,3R,5R)-3-{4-amino-7H-pyrrolo[2,3-d]pyrimidin-7-yl}-5-[2-({6-azaspiro[3.4]octan-] registered an IC50 of 6.2 nM.

A further test has as its target METTL3/METTL14 complex. Nature of the test: Inhibition of METTL3/METTL14 (unknown origin).
The compound `CC1=NN(c2ccc(C)c(C)c2)C(=O)/C1=N\Nc1cccc(-c2cccc(C(=O)O)c2)c1` returned an IC50 of 15300 nM.

For the next test, the target named is METTL3/METTL14 complex (Homo sapiens). As to the kind of experiment: Competive inhibition of full length human METTL3/METTL14 expressed in Sf9 cells using single strand RNA 5'-AAGAACCGGACUAAGCU-3' and SAM as substrate incubated for 40 mins by HTRF assay. (In TR-FRET formats the signal depends on donor and acceptor labels being close together.)
In the case of `CN1CCC(NC(=O)[C@H]2O[C@@H](n3cnc4c(N)ncnc43)[C@H](O)[C@@H]2O)CC1`, the IC50 worked out at 65000 nM.

As for `CNC1CCC(O)(Cn2cnc3c(N)ncnc32)C(O)C1` (stereo not drawn), the IC50 was found to be 98000 nM.
